Here are results for eight cell lines from the supplement of paper PMC10307832.

Holding throughout (assay): relative viability (nuclei count vs DMSO), 5 days (fraction); higher = more cells survive
Compound in the assay “NVP-TAE684 + Luminespib”: COc1cc(N2CCC(N3CCN(C)CC3)CC2)ccc1Nc1ncc(Cl)c(Nc2ccccc2S(=O)(=O)C(C)C)n1 [NVP-TAE684] + CCNC(=O)c1noc(-c2cc(C(C)C)c(O)cc2O)c1-c1ccc(CN2CCOCC2)cc1 [Luminespib] (partner 0.01 µM)
A digest of the protocol:
(§1)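 Five library-drug doses in √10 steps were combined with a fixed anchor-drug dose, or a single drug was given alone, by pin tool to lung cancer cell lines in 1536-well plates the day after seeding. Nuclei were stained and counted after 5 days. Relative viability is the nuclei count in treated wells over that in vehicle wells, taken as the median of duplicate plates.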

Compound in the assay “NVP-TAE684 + Alpelisib”: COc1cc(N2CCC(N3CCN(C)CC3)CC2)ccc1Nc1ncc(Cl)c(Nc2ccccc2S(=O)(=O)C(C)C)n1 [NVP-TAE684] + Cc1nc(NC(=O)N2CCC[C@H]2C(N)=O)sc1-c1ccnc(C(C)(C)C(F)(F)F)c1 [Alpelisib] (partner 2 µM)
Summed up: as §1

Compound in the assay “Vandetanib + Palbociclib”: COc1cc2/c(=N/c3ccc(Br)cc3F)nc[nH]c2cc1OCC1CCN(C)CC1 [Vandetanib] + CC(=O)c1c(C)c2cnc(Nc3ccc(N4CCNCC4)cn3)nc2n(C2CCCC2)c1=O [Palbociclib] (partner 0.5 µM)
A digest of the protocol: as §1

Compound in the assay “Vandetanib + Pictilisib”: COc1cc2/c(=N/c3ccc(Br)cc3F)nc[nH]c2cc1OCC1CCN(C)CC1 [Vandetanib] + CS(=O)(=O)N1CCN(Cc2cc3nc(-c4cccc5[nH]ncc45)nc(N4CCOCC4)c3s2)CC1 [Pictilisib] (partner 1 µM)
A digest of the protocol: as §1

Regarding NCI-H1915, the relative viability turned out to be 0.631 in the assay with NVP-TAE684 + Luminespib (first compound 0.2 µM); 0.821 with NVP-TAE684 + Luminespib (first compound 0.6325 µM); 0.699 with NVP-TAE684 + Luminespib (first compound 2 µM); 1.03 with NVP-TAE684 + Alpelisib (first compound 0.2 µM); 1.13 with NVP-TAE684 + Alpelisib (first compound 0.6325 µM); 0.963 with NVP-TAE684 + Alpelisib (first compound 2 µM). Moreover, the relative viability with Vandetanib + Palbociclib (first compound 0.02 µM) was 0.51; with Vandetanib + Palbociclib (first compound 0.06325 µM), 0.519; with Vandetanib + Palbociclib (first compound 0.2 µM) it was 0.499; with Vandetanib + Palbociclib (first compound 0.6325 µM), 0.484; in the assay with Vandetanib + Palbociclib (first compound 2 µM), 0.522; with Vandetanib + Pictilisib (first compound 0.02 µM), 0.858. The relative viability in the assay with Vandetanib + Pictilisib (first compound 0.06325 µM) turned out to be 0.901; in the assay with Vandetanib + Pictilisib (first compound 0.2 µM) it was 0.946; with Vandetanib + Pictilisib (first compound 0.6325 µM), 0.944; with Vandetanib + Pictilisib (first compound 2 µM) it was 0.888.

On to NCI-H1395, for which the relative viability amounted to 0.686 in the assay with NVP-TAE684 + Luminespib (first compound 0.2 µM); 0.834 with NVP-TAE684 + Luminespib (first compound 0.6325 µM); 0.732 with NVP-TAE684 + Luminespib (first compound 2 µM); 1.2 with NVP-TAE684 + Alpelisib (first compound 0.2 µM); 1.19 with NVP-TAE684 + Alpelisib (first compound 0.6325 µM); 0.739 with NVP-TAE684 + Alpelisib (first compound 2 µM). Also, the relative viability amounted to 0.635 with Vandetanib + Palbociclib (first compound 0.02 µM); 0.602 in the assay with Vandetanib + Palbociclib (first compound 0.06325 µM); 0.641 with Vandetanib + Palbociclib (first compound 0.2 µM); 0.609 in the assay with Vandetanib + Palbociclib (first compound 0.6325 µM); 0.567 in the assay with Vandetanib + Palbociclib (first compound 2 µM); 0.687 with Vandetanib + Pictilisib (first compound 0.02 µM). Besides, the relative viability is 0.61 in the assay with Vandetanib + Pictilisib (first compound 0.06325 µM), 0.656 in the assay with Vandetanib + Pictilisib (first compound 0.2 µM), 0.697 in the assay with Vandetanib + Pictilisib (first compound 0.6325 µM) and 0.418 in the assay with Vandetanib + Pictilisib (first compound 2 µM).

On to COR-L23, for which the relative viability came out at 0.909 with NVP-TAE684 + Luminespib (first compound 0.2 µM); 0.457 with NVP-TAE684 + Luminespib (first compound 0.6325 µM); 0.152 in the assay with NVP-TAE684 + Luminespib (first compound 2 µM); 0.762 in the assay with NVP-TAE684 + Alpelisib (first compound 0.2 µM); 0.517 with NVP-TAE684 + Alpelisib (first compound 0.6325 µM); 0.237 with NVP-TAE684 + Alpelisib (first compound 2 µM). Moreover, the relative viability was determined as 0.345 in the assay with Vandetanib + Palbociclib (first compound 0.02 µM); 0.27 in the assay with Vandetanib + Palbociclib (first compound 0.06325 µM); 0.294 with Vandetanib + Palbociclib (first compound 0.2 µM); 0.318 with Vandetanib + Palbociclib (first compound 0.6325 µM); 0.268 with Vandetanib + Palbociclib (first compound 2 µM); 0.709 with Vandetanib + Pictilisib (first compound 0.02 µM). The relative viability in the assay with Vandetanib + Pictilisib (first compound 0.06325 µM) amounted to 0.643; with Vandetanib + Pictilisib (first compound 0.2 µM) it was 0.989; with Vandetanib + Pictilisib (first compound 0.6325 µM), 0.813; with Vandetanib + Pictilisib (first compound 2 µM), 0.78.

Turning to NCI-H1734, the relative viability in the assay with NVP-TAE684 + Luminespib (first compound 0.2 µM) was found to be 0.221; with NVP-TAE684 + Luminespib (first compound 0.6325 µM), 0.164; with NVP-TAE684 + Luminespib (first compound 2 µM), 0.166; with NVP-TAE684 + Alpelisib (first compound 0.2 µM), 0.768; with NVP-TAE684 + Alpelisib (first compound 0.6325 µM) it was 0.916; with NVP-TAE684 + Alpelisib (first compound 2 µM), 0.468. For the same cell line, the relative viability with Vandetanib + Palbociclib (first compound 0.02 µM) is 0.35; with Vandetanib + Palbociclib (first compound 0.06325 µM), 0.348; in the assay with Vandetanib + Palbociclib (first compound 0.2 µM) it was 0.314; with Vandetanib + Palbociclib (first compound 0.6325 µM), 0.373; in the assay with Vandetanib + Palbociclib (first compound 2 µM), 0.295; with Vandetanib + Pictilisib (first compound 0.02 µM), 0.43. The relative viability with Vandetanib + Pictilisib (first compound 0.06325 µM) came to 0.435; with Vandetanib + Pictilisib (first compound 0.2 µM), 0.479; in the assay with Vandetanib + Pictilisib (first compound 0.6325 µM), 0.449; with Vandetanib + Pictilisib (first compound 2 µM), 0.43.

As to NCI-H2405, the relative viability with NVP-TAE684 + Luminespib (first compound 0.2 µM) stood at 0.703; with NVP-TAE684 + Luminespib (first compound 0.6325 µM), 0.694; with NVP-TAE684 + Luminespib (first compound 2 µM) it was 0.386; in the assay with NVP-TAE684 + Alpelisib (first compound 0.2 µM) it was 0.835; in the assay with NVP-TAE684 + Alpelisib (first compound 0.6325 µM), 0.662; with NVP-TAE684 + Alpelisib (first compound 2 µM), 0.374. Further, the relative viability with Vandetanib + Palbociclib (first compound 0.02 µM) was 0.494; with Vandetanib + Palbociclib (first compound 0.06325 µM) it was 0.39; with Vandetanib + Palbociclib (first compound 0.2 µM), 0.514; with Vandetanib + Palbociclib (first compound 0.6325 µM), 0.592; with Vandetanib + Palbociclib (first compound 2 µM) it was 0.514; with Vandetanib + Pictilisib (first compound 0.02 µM), 0.535. Further, the relative viability in the assay with Vandetanib + Pictilisib (first compound 0.06325 µM) stood at 0.264; in the assay with Vandetanib + Pictilisib (first compound 0.2 µM) it was 0.44; with Vandetanib + Pictilisib (first compound 0.6325 µM), 0.45; in the assay with Vandetanib + Pictilisib (first compound 2 µM), 0.222.

For the cell line NCI-H2087, the relative viability with NVP-TAE684 + Luminespib (first compound 0.2 µM) was 0.146; with NVP-TAE684 + Luminespib (first compound 0.6325 µM) it was 0.205; in the assay with NVP-TAE684 + Luminespib (first compound 2 µM), 0.151; with NVP-TAE684 + Alpelisib (first compound 0.2 µM), 1.07; in the assay with NVP-TAE684 + Alpelisib (first compound 0.6325 µM), 1.04; with NVP-TAE684 + Alpelisib (first compound 2 µM) it was 1.01. Also, the relative viability was determined as 0.244 with Vandetanib + Palbociclib (first compound 0.02 µM); 0.196 in the assay with Vandetanib + Palbociclib (first compound 0.06325 µM); 0.183 with Vandetanib + Palbociclib (first compound 0.2 µM); 0.281 in the assay with Vandetanib + Palbociclib (first compound 0.6325 µM); 0.212 with Vandetanib + Palbociclib (first compound 2 µM); 1 in the assay with Vandetanib + Pictilisib (first compound 0.02 µM). In addition, the relative viability with Vandetanib + Pictilisib (first compound 0.06325 µM) was 0.694; with Vandetanib + Pictilisib (first compound 0.2 µM), 0.922; with Vandetanib + Pictilisib (first compound 0.6325 µM) it was 0.935; in the assay with Vandetanib + Pictilisib (first compound 2 µM) it was 0.964.

Turning to NCI-H1793, the relative viability with NVP-TAE684 + Luminespib (first compound 0.2 µM) came to 0.164; with NVP-TAE684 + Luminespib (first compound 0.6325 µM), 0.168; with NVP-TAE684 + Luminespib (first compound 2 µM) it was 0.144; in the assay with NVP-TAE684 + Alpelisib (first compound 0.2 µM), 0.78; with NVP-TAE684 + Alpelisib (first compound 0.6325 µM), 0.637; with NVP-TAE684 + Alpelisib (first compound 2 µM), 0.436. Further, the relative viability was found to be 0.325 with Vandetanib + Palbociclib (first compound 0.02 µM); 0.305 in the assay with Vandetanib + Palbociclib (first compound 0.06325 µM); 0.302 with Vandetanib + Palbociclib (first compound 0.2 µM); 0.296 with Vandetanib + Palbociclib (first compound 0.6325 µM); 0.261 with Vandetanib + Palbociclib (first compound 2 µM); 0.338 with Vandetanib + Pictilisib (first compound 0.02 µM). The relative viability was 0.309 in the assay with Vandetanib + Pictilisib (first compound 0.06325 µM), 0.27 in the assay with Vandetanib + Pictilisib (first compound 0.2 µM), 0.341 with Vandetanib + Pictilisib (first compound 0.6325 µM) and 0.379 with Vandetanib + Pictilisib (first compound 2 µM).

In the case of NCI-H2085, the relative viability amounted to 0.435 in the assay with NVP-TAE684 + Luminespib (first compound 0.2 µM); 0.39 with NVP-TAE684 + Luminespib (first compound 0.6325 µM); 0.294 with NVP-TAE684 + Luminespib (first compound 2 µM); 0.934 with NVP-TAE684 + Alpelisib (first compound 0.2 µM); 0.897 with NVP-TAE684 + Alpelisib (first compound 0.6325 µM); 0.712 with NVP-TAE684 + Alpelisib (first compound 2 µM). The relative viability in the assay with Vandetanib + Palbociclib (first compound 0.02 µM) is 0.447; in the assay with Vandetanib + Palbociclib (first compound 0.06325 µM), 0.479; in the assay with Vandetanib + Palbociclib (first compound 0.2 µM) it was 0.496; with Vandetanib + Palbociclib (first compound 0.6325 µM), 0.498; with Vandetanib + Palbociclib (first compound 2 µM) it was 0.489; with Vandetanib + Pictilisib (first compound 0.02 µM), 0.428. The relative viability in the assay with Vandetanib + Pictilisib (first compound 0.06325 µM) was 0.421; with Vandetanib + Pictilisib (first compound 0.2 µM), 0.398; with Vandetanib + Pictilisib (first compound 0.6325 µM) it was 0.363; with Vandetanib + Pictilisib (first compound 2 µM), 0.513.
